From ChEMBL document CHEMBL1148509, “Design and semisynthesis of novel fredericamycin A derivatives with an improved antitumor profile” (Bioorg Med Chem Lett, 2006)

How the values were obtained:
[1] = system: Panel (10 carcinoma cell lines); assay: Inhibition of cell viability of panel of 10 cell lines (LCL H460, MACL MCF7, LXFL 529L, LXFA 629L, MEXF 462NL, MEXF 514L, MAXF 401NL, RXF 944L, RXF 486L, UXF 1138L) at 1 ug/mL; assay type: functional; conditions: Homo sapiens
[2] = system: Panel (12 tumour cell lines); assay: Cytotoxicity against panel of 12 cell lines (LCL H460, MACL MCF7, LXFL 529L, LXFA 629L, MEXF 462NL, MEXF 514L, MAXF 401NL, RXF 944L, RXF 486L, UXF 1138L, PR PC3M, PRCL 22RV1); assay type: functional; conditions: Homo sapiens
[3] = system: Mus musculus; assay: Toxicity in nude mouse xenografted with human UXF1138 at 0.3 mg/kg/day; assay type: organism-based; conditions: in vivo
[4] = system: Mus musculus; assay: Toxicity in nude mouse xenografted with human UXF1138 at 1 mg/kg/day; assay type: organism-based; conditions: in vivo
[5] = system: Mus musculus; assay: Decrease in body weight of nude mouse xenografted with human UXF1138 at 0.15 mg/kg/day, ip after 7 days; assay type: functional; parameters: scale not given: the % may be the effect or the level left; conditions: route intraperitoneal
[6] = system: Mus musculus; assay: Toxicity in nude mouse xenografted with human UXF1138 at 3 mg/kg/day; assay type: organism-based; conditions: in vivo
[7] = system: UXF1138; assay: Antitumor activity against human UXF1138 cell line xenografted in nude mouse at 0.15 mg/kg/day, ip after 7 days; conditions: route intraperitoneal

Row | SMILES | inhibition at 1 µg/mL [1] [%] | IC70 [2] [nM] | other results
1 | COC1=CC(=O)c2c(O)c3c(c(O)c2C1=O)C(=O)[C@]1(CCc2cc4cc(C=O)nc(O)c4c(O)c21)C3=O | 31 | – | –
2 | C/C=C/C=C/c1cc2c(F)c3c(c(O)c2c(O)n1)[C@@]1(CC3)C(=O)c2c(O)c3c(c(O)c2C1=O)C(=O)C(OC)=CC3=O | 91 | 20 | –
3 | C/C=C/C=C/c1cc2cc3c(c(O)c2c(O)n1)[C@@]1(CC3)C(=O)C2=C(C(=O)c3c(O)c(N(C)C)cc(O)c3C2=O)C1=O | 96 | 306 | –
4 | COC1=CC(=O)c2c(O)c3c(c(O)c2C1=O)C(=O)[C@]1(CCc2c1c(O)c1c(O)nc(/C=C/c4csc(NC(C)=O)n4)cc1c2Br)C3=O | 83 | 512 | –
5 | C/C=C/C=C/c1cc2c(Br)c3c(c(O)c2c(O)n1)[C@@]1(CC3)C(=O)c2c(O)c3c(c(O)c2C1=O)C(=O)C(OCC)=CC3=O | 97 | 160 | –
6 | C/C=C/C=C/c1cc2c(Cl)c3c(c(O)c2c(O)n1)[C@@]1(CC3)C(=O)c2c(O)c3c(c(O)c2C1=O)C(=O)C(OC)=CC3=O | 91 | 14 | –
7 | COC1=CC(=O)c2c(O)c3c(c(O)c2C1=O)C(=O)[C@]1(CCc2c1c(O)c1c(O)nc(/C=N/N4CCN(C)CC4)cc1c2Br)C3=O | 73 | 658 | –
8 | COC1=CC(=O)c2c(O)c3c(c(O)c2C1=O)C(=O)[C@]1(CCc2c1c(O)c1c(O)nc(C=O)cc1c2Cl)C3=O | 25 | – | –
9 | COC1=CC(=O)c2c(O)c3c(c(O)c2C1=O)C(=O)[C@]1(CCc2c1c(O)c1c(O)nc(C=O)cc1c2Br)C3=O | 42 | – | –
10 | COC1=CC(=O)c2c(O)c3c(c(O)c2C1=O)C(=O)[C@]1(CCc2c1c(O)c1c(O)nc(/C=N/OC(C)C)cc1c2Br)C3=O | 91 | 74 | –
11 | C/C=C/C=C/c1cc2c(Br)c3c(c(O)c2c(O)n1)[C@@]1(CC3)C(=O)C2=C(C(=O)c3c(O)c(NC4CC4)cc(O)c3C2=O)C1=O | 97 | 96 | –
12 | CC(=O)O[C@H]1C(=O)[C@@]2(C)[C@H]([C@H](OC(=O)c3ccccc3)[C@]3(O)C[C@H](OC(=O)[C@H](O)[C@@H](NC(=O)c4ccccc4)c4ccccc4)C(C)=C1C3(C)C)[C@]1(OC(C)=O)CO[C@@H]1C[C@@H]2O [PACLITAXEL] | – | 0.7 | –
13 | C/C=C/C=C/c1cc2cc3c(c(O)c2c(O)n1)[C@@]1(CC3)C(=O)C2=C(C(=O)c3c(O)c(OCCN(C)C)cc(O)c3C2=O)C1=O | 94 | 1020 | –
14 | COC1=CC(=O)c2c(O)c3c(c(O)c2C1=O)C(=O)[C@]1(CCc2c1c(O)c1c(O)nc(/C=C/c4csc(C)n4)cc1c2Br)C3=O | 85 | 124 | –
15 | COC1=CC(=O)c2c(O)c3c(c(O)c2C1=O)C(=O)[C@]1(CCc2c1c(O)c1c(O)nc(/C=C/c4csc(N)n4)cc1c2Br)C3=O | 77 | 612 | –
16 | COc1cccc2c1C(=O)c1c(O)c3c(c(O)c1C2=O)C[C@@](O)(C(=O)CO)C[C@@H]3O[C@H]1C[C@H](N)[C@H](O)[C@H](C)O1 [DOXORUBICIN] | 91 | 39 | –
17 | C/C=C/C=C/c1cc2c(Br)c3c(c(O)c2c(O)n1)[C@@]1(CC3)C(=O)c2c(O)c3c(c(O)c2C1=O)C(=O)C(OC)=CC3=O | 92 | 8.1 | –
18 | C/C=C/C=C/c1cc2cc3c(c(O)c2c(=O)[nH]1)[C@@]1(CC3)C(=O)c2c(O)c3c(c(O)c2C1=O)C(=O)C(OC)=CC3=O [FDM A] | 82 | 517 | –
19 | COC1=CC(=O)c2c(O)c3c(c(O)c2C1=O)C(=O)[C@]1(CCc2c1c(O)c1c(O)nc(/C=N/OCc4ccccc4)cc1c2Br)C3=O | 91 | 50 | –
20 | C/C=C/C=C/c1cc2c(Br)c3c(c(O)c2c(O)n1)[C@@]1(CC3)C(=O)C2=C(C(=O)c3c(O)c(NCCCC)cc(O)c3C2=O)C1=O | 94 | 302 | –
21 | COC1=CC(=O)c2c(O)c3c(c(O)c2C1=O)C(=O)[C@]1(CCc2cc4cc(/C=C/C(C)=O)nc(O)c4c(O)c21)C3=O | 59 | – | –
22 | COC1=CC(=O)c2c(O)c3c(c(O)c2C1=O)C(=O)[C@]1(CCc2c1c(O)c1c(O)nc(/C=N/OCCN4CCOCC4)cc1c2Br)C3=O | 88 | 101 | –
23 | C/C=C/C=C/c1cc2cc3c(c(O)c2c(O)n1)[C@@]1(CC3)C(=O)C2=C(C(=O)c3c(O)c(NC(C)C)cc(O)c3C2=O)C1=O | 91 | 634 | –
24 | C/C=C/C=C/c1cc2cc3c(c(O)c2c(O)n1)[C@@]1(CC3)C(=O)C2=C(C(=O)c3c(O)c(N4CCOCC4)cc(O)c3C2=O)C1=O | 98 | 77 | –
25 | CC[C@@]1(O)C(=O)OCc2c1cc1n(c2=O)Cc2cc3ccccc3nc2-1 [CAMPTOTHECIN] | – | 8.6 | –
26 | C/C=C/C=C/c1cc2c(I)c3c(c(O)c2c(O)n1)[C@@]1(CC3)C(=O)c2c(O)c3c(c(O)c2C1=O)C(=O)C(OC)=CC3=O | 93 | 11 | Activity [3]: Non-toxic; Activity [4]: Toxic; Activity [5]: -3.1%; Activity [6]: Toxic; Activity [7]: 51%
27 | COC1=CC(=O)c2c(O)c3c(c(O)c2C1=O)C(=O)[C@]1(CCc2cc4cc(C(O)C(O)C(O)C(C)O)nc(O)c4c(O)c21)C3=O (stereo partly drawn) | 85 | 186 | –
